Values belong to the molecule of their own block, whether it stands above or below them. Calls of active or inactive are those of the source. No cut-off for these calls is given here.
Legend:
HeLa [1] = test: Induction of EGFP fused Htt Q145 mutant exon 1 (unknown origin) degradation expressed in human HeLa cells assessed as HSP70/CHIP recruitment based proteosome mediated mHtt exon 1-Q145 degradation at higher concentration measured after 24 hrs by Western blot analysis; format: cell-based
[2] = Apparent permeability across apical to basolateral side in human Caco-2 cells at 10 uM; format: ADME, cell-based; conditions: for Papp A→B at 10 µM: Caco-2
[3] = Efflux ratio of apparent permeability across basolateral to apical side over apical to basolateral side in human Caco-2 cells at 10 uM; format: ADME, cell-based; conditions: for efflux ratio at 10 µM: Caco-2
[4] = Apparent permeability across basolateral to apical side in human Caco-2 cells at 10 uM; format: ADME, cell-based; conditions: for Papp B→A at 10 µM: Caco-2
HeLa [5] = test: Induction of EGFP fused Htt Q145 mutant exon 1 (unknown origin) degradation expressed in human HeLa cells assessed as HSP70/CHIP recruitment based proteosome mediated mHtt exon 1-Q145 degradation at 10 uM measured after 24 hrs by Western blot analysis; format: cell-based
[6] = Ratio of drug concentration in brain to plasma in C57BL/6J mouse at 0.1 to 0.7 mg/kg, iv measured after 4 hrs; format: ADME, organism-based; conditions: brain and plasma, dose 0.1-0.7 mg/kg
HeLa [7] = test: Induction of EGFP fused Htt Q145 mutant exon 1 (unknown origin) degradation expressed in human HeLa cells assessed as HSP70/CHIP recruitment based proteosome mediated mHtt exon 1-Q145 degradation at 5 uM measured after 24 hrs by Western blot analysis; format: cell-based
HeLa [8] = test: Induction of EGFP fused Htt Q145 mutant exon 1 (unknown origin) degradation expressed in human HeLa cells assessed as HSP70/CHIP recruitment based proteosome mediated mHtt exon 1-Q145 degradation at 10 uM measured after 24 to 48 hrs by Western blot analysis; format: cell-based; conditions: time 24-48 hrs
[9] = test system: Huntingtin (Homo sapiens), P42858 [UNDEFINED MUTATION]; test: Induction of mutant Htt (unknown origin) degradation expressed in human fibroblasts cells assessed as HSP70/CHIP recruitment based proteosome mediated mHtt degradation by western blot analysis; format: cell-based; conditions: Fibroblast
Huntingtin (Homo sapiens), P42858 [UNDEFINED MUTATION], sequence (P42858 whole entry, looked up, change not shown, the tested form may be a part): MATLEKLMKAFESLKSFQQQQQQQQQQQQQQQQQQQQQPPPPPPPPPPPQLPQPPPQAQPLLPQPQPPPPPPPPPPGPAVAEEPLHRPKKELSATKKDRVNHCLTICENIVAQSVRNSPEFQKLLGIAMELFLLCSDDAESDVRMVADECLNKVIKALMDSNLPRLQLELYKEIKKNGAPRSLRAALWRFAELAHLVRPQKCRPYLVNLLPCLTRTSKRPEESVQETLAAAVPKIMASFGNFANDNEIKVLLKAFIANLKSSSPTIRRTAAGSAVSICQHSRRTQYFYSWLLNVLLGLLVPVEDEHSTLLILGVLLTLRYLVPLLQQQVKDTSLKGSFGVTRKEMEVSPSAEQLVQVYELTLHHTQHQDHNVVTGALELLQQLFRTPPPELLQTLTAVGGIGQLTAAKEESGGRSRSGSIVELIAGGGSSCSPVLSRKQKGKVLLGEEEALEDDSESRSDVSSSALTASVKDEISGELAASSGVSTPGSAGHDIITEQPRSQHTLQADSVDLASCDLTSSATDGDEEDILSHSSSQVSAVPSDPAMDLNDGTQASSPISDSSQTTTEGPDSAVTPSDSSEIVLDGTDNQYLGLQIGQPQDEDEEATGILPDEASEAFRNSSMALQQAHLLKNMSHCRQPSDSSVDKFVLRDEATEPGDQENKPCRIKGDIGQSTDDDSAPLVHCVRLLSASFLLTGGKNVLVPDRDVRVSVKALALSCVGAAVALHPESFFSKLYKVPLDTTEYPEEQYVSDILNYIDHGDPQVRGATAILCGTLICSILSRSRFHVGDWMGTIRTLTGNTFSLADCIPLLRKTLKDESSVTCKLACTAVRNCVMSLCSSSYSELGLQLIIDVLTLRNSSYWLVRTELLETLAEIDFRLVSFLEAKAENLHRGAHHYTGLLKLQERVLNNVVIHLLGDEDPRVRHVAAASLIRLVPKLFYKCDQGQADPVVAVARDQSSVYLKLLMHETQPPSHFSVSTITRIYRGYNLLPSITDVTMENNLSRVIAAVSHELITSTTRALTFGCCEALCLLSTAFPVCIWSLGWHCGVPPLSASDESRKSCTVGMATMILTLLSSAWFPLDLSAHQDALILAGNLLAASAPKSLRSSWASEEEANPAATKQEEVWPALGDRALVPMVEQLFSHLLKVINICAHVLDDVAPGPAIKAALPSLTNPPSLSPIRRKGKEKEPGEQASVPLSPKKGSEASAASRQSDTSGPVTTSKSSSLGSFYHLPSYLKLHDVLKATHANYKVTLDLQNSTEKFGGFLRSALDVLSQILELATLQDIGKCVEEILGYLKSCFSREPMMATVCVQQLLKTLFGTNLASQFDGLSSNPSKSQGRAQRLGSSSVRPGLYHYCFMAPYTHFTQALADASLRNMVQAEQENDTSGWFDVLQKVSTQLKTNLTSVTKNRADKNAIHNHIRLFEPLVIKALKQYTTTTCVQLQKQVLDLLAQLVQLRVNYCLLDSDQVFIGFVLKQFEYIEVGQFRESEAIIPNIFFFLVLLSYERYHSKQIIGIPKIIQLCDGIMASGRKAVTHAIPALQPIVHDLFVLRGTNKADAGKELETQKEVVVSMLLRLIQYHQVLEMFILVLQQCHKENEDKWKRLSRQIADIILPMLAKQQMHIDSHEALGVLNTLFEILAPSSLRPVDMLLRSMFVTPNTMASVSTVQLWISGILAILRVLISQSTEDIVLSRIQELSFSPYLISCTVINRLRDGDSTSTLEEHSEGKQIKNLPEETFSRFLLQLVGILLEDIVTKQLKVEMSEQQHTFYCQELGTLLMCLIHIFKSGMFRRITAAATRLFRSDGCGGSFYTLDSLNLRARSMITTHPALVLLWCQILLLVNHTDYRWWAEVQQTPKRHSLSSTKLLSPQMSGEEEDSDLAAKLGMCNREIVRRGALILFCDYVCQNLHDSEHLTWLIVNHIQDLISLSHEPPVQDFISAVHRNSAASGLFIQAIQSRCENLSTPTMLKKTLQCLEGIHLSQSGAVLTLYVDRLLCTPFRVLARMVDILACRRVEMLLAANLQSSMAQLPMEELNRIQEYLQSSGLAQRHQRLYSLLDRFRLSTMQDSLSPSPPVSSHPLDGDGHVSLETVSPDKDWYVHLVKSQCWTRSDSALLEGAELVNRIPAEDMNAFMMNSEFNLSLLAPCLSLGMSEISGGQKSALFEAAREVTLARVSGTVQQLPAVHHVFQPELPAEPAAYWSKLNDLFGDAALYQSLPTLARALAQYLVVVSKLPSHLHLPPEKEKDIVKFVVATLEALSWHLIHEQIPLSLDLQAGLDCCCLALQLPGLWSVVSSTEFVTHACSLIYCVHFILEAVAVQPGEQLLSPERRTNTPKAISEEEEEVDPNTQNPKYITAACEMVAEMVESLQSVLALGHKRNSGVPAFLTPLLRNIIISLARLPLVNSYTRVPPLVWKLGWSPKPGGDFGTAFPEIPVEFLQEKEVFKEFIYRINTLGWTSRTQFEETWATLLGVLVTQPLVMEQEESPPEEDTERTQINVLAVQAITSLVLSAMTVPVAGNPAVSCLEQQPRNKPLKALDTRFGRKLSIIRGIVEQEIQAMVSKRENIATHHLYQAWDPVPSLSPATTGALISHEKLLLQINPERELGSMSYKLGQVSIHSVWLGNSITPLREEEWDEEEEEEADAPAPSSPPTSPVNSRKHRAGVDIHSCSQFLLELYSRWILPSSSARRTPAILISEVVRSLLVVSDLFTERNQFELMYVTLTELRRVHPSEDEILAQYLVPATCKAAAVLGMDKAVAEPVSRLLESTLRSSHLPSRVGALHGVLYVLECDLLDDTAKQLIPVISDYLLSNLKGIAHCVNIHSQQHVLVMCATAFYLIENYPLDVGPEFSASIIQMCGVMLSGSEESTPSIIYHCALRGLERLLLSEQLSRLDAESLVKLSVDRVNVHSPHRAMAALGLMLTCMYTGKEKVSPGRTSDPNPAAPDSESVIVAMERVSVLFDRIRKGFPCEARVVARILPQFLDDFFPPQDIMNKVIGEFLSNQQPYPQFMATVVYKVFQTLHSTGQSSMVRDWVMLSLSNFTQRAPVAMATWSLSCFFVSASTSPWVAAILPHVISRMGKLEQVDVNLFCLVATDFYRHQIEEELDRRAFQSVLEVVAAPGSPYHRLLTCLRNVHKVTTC

HeLa [10] = test: Induction of EGFP fused Htt Q145 mutant exon 1 (unknown origin) degradation expressed in human HeLa cells assessed as HSP70/CHIP recruitment based proteosome mediated decrease in aggregate foci at 10 uM incubated for 24 hrs by Hoechst33342 staining based fluorescence microscopic analysis; format: cell-based; parameters: scale not given: the % may be the effect or the level left
HeLa [11] = test: Induction of EGFP fused Htt Q145 mutant exon 1 (unknown origin) degradation expressed in human HeLa cells assessed as HSP70/CHIP recruitment based proteosome mediated mHtt exon 1-Q145 degradation at 10 uM preincubated with geldanamycin for 6 hrs and measured after 24 hrs by Western blot analysis; format: cell-based
HeLa [12] = test: Induction of EGFP fused Htt Q145 mutant exon 1 (unknown origin) degradation expressed in human HeLa cells assessed as HSP70/CHIP recruitment based proteosome mediated mHtt exon 1-Q145 degradation at 10 uM measured after 24 hrs by Western blot analysis in the presence of bortezomib; format: cell-based
HeLa [13] = test: Induction of EGFP fused Htt Q23 mutant exon 1 (unknown origin) degradation expressed in human HeLa cells assessed as HSP70/CHIP recruitment based proteosome mediated mHtt exon 1-Q23 degradation at 1 to 10 uM measured after 48 hrs by Western blot analysis; format: cell-based; conditions: dose 1-10 µM

SMILES: CN(C)c1ccc(/N=N/c2nc3ccc(OCCOCCOCCOCCOc4cccc5ccccc45)cc3s2)cc1
Activity (HeLa [1]): Active

SMILES: OCCOCCOCCOCCOC12CC3CC(CC(C3)C1)C2
Activity (HeLa [5]): inactive

SMILES: CN(C)c1ccc(/N=N/c2nc3ccc(O)cc3s2)cc1
Activity (HeLa [5]): inactive

SMILES: CN(C)c1ccc(/N=N/c2nc3ccc(OCCOCCOCCOCCOC(c4ccccc4)c4ccccc4)cc3s2)cc1
Activity (HeLa [1]): Active

The next lines start with results.

Papp A→B at 10 µM [2]: 1.03 ×10⁻⁶ cm/s
efflux ratio at 10 µM [3]: 0.19
Papp B→A at 10 µM [4]: 0.196 ×10⁻⁶ cm/s
SMILES: CC(C)C[C@H](NC(=O)[C@@H](O)[C@H](N)Cc1ccccc1)C(=O)NCCOCCOCCOc1ccc2nc(/N=N/c3ccc(N(C)C)cc3)sc2c1

Papp ([2]; caco-2, 10 µM): 2.46 10^-6 cm/s
Ratio ([3]; caco-2, 10 µM): 0.241
Papp ([4]; caco-2, 10 µM): 0.241 10^-6 cm/s
SMILES: CCCCCC(CCCCC)OCCOCCOCCOCCOc1ccc2nc(/N=N/c3ccc(N(C)C)cc3)sc2c1
Activity (HeLa [1]): Active

Kp at 4 h [6]: 4.89
Papp B→A at 10 µM [4]: 4.71 ×10⁻⁶ cm/s
SMILES: CN(C)c1ccc(/N=N/c2nc3ccc(OCCOCCOC45CC6CC(CC(C6)C4)C5)cc3s2)cc1

Kp at 4 h [6]: 0.13
Papp A→B at 10 µM [2]: 5.32 ×10⁻⁶ cm/s
efflux ratio at 10 µM [3]: 0.235
Papp B→A at 10 µM [4]: 1.25 ×10⁻⁶ cm/s
SMILES: CN(C)c1ccc(/N=N/c2nc3ccc(OCCOCCOCCOCCOC45CC6CC7C8CC(CC74)CC5C8C6)cc3s2)cc1
Activity (HeLa [7]): 60%

Activity [9]: Dose-Dependent Effect
Papp A→B at 10 µM [2]: 0.098 ×10⁻⁶ cm/s
efflux ratio at 10 µM [3]: 1.2
Papp B→A at 10 µM [4]: 0.118 ×10⁻⁶ cm/s
SMILES: CN(C)c1ccc(/N=N/c2nc3ccc(OCCOCCOCCOCCOC45CC6CC(CC(C6)C4)C5)cc3s2)cc1
Activity (HeLa [8]): Active
Activity (HeLa [10]): 60%
Activity (HeLa [11]): Active
Activity (HeLa [7]): inactive
Activity (HeLa [12]): inactive
Activity (HeLa [13]): inactive

Source: ChEMBL document CHEMBL5038672, “Conversion of a PROTAC Mutant Huntingtin Degrader into Small-Molecule Hydrophobic Tags Focusing on Drug-like Properties” (ACS Med Chem Lett, 2022)
